Columns and labels:
[1] = cited from earlier work
[2] = thermodynamic stability of the crystal polymorph; format: physicochemical
From the text: The compound of the formula (I-1) is known from WO2010/069502. To date, only one crystal form of the compound 1-(3-chloropyridin-2-yl)-N-[4-cyano-2-methyl-6-(methylcarbamoyl)phenyl]-3-{[5-(trifluoromethyl)-2H-tetrazol-2-yl]methyl}-1H-pyrazole-5-carboxamide of the formula (I-1) was known, which is referred to hereinafter as polymorph A. Polymorph A has a characteristic x-ray powder diffractogram, Raman spectrum and IR spectrum (Tab. 1-2, FIGS. 2, 3, 5).

| Structure (SMILES) | pKa [1] | thermodynamic stability of crystal polymorph [2] |
| --- | --- | --- |
| FC(F)(F)c1nnn[nH]1 [5-Trifluoromethyltetrazole] | 1.14 | – |
| CNC(=O)c1cc(C#N)cc(C)c1NC(=O)c1cc(Cn2nnc(C(F)(F)F)n2)nn1-c1ncccc1Cl [Polymorph A, 1-(3-chloropyridin-2-yl)-N-[4-cyano-2-methyl-6-(methylcarbamoyl)phenyl]-3-{[5-(trifluoromethyl)-2H-tetrazol-2-yl]methyl}-1H-pyrazole-5-carboxamide] | – | thermodynamically metastable |

Source: patent US8969572B2, “Process for preparing tetrazole-substituted anthranilamide derivatives and novel crystal polymorphs of these derivatives” (Bayer Cropscience AG, priority 2010, dated 2015)
